Data: ChEMBL document CHEMBL3797178, “Synthesis, antimycobacterial and antibacterial activity of 1-(6-amino-3,5-difluoropyridin-2-yl)fluoroquinolone derivatives containing an oxime functional moiety” (2016)
In brackets after ≈: the same amount, converted by molar mass.

Legend:
Assay type in all cases: functional
Staphylococcus aureus [1] = assay: Antibacterial activity against methicillin-sensitive Staphylococcus aureus 14-3 after 18 to 24 hrs by CLSI M100-S11 method
Staphylococcus aureus [2] = assay: Antibacterial activity against methicillin-resistant Staphylococcus aureus 14-5 after 18 to 24 hrs by CLSI M100-S11 method
Staphylococcus aureus [3] = assay: Antibacterial activity against methicillin-sensitive Staphylococcus aureus 14-4 after 18 to 24 hrs by CLSI M100-S11 method
Pseudomonas aeruginosa [4] = assay: Antibacterial activity against Pseudomonas aeruginosa 14-16 after 18 to 24 hrs by CLSI M100-S11 method
Pseudomonas aeruginosa [5] = assay: Antibacterial activity against Pseudomonas aeruginosa 14-19 after 18 to 24 hrs by CLSI M100-S11 method
Enterococcus faecalis [6] = assay: Antibacterial activity against Enterococcus faecalis 14-2 after 18 to 24 hrs by CLSI M100-S11 method
Klebsiella pneumoniae [7] = assay: Antibacterial activity against Klebsiella pneumoniae 14-2 after 18 to 24 hrs by CLSI M100-S11 method
Escherichia coli [8] = assay: Antibacterial activity against Escherichia coli ATCC 25922 after 18 to 24 hrs by CLSI M100-S11 method
Streptococcus pneumoniae = assay: Antibacterial activity against Streptococcus pneumoniae ATCC 19615 after 18 to 24 hrs by CLSI M100-S11 method
Staphylococcus aureus [9] = assay: Antibacterial activity against methicillin-sensitive Staphylococcus aureus 14-2 after 18 to 24 hrs by CLSI M100-S11 method
[10] = tested on: Staphylococcus epidermidis; assay: Antibacterial activity against methicillin-sensitive Staphylococcus epidermidis 14-4 after 18 to 24 hrs by CLSI M100-S11 method
Staphylococcus aureus [11] = assay: Antibacterial activity against methicillin-resistant Staphylococcus aureus 14-4 after 18 to 24 hrs by CLSI M100-S11 method
Klebsiella pneumoniae [12] = assay: Antibacterial activity against extended-spectrum beta-lactamase-producing Klebsiella pneumoniae 14-17 after 18 to 24 hrs by CLSI M100-S11 method
[13] = tested on: Staphylococcus epidermidis; assay: Antibacterial activity against methicillin-resistant Staphylococcus epidermidis 14-37 after 18 to 24 hrs by CLSI M100-S11 method
Pseudomonas aeruginosa [14] = assay: Antibacterial activity against Pseudomonas aeruginosa 14-14 after 18 to 24 hrs by CLSI M100-S11 method
[15] = tested on: Staphylococcus epidermidis; assay: Antibacterial activity against methicillin-resistant Staphylococcus epidermidis 14-39 after 18 to 24 hrs by CLSI M100-S11 method
Klebsiella pneumoniae [16] = assay: Antibacterial activity against Klebsiella pneumoniae 14-4 after 18 to 24 hrs by CLSI M100-S11 method
Pseudomonas aeruginosa [17] = assay: Antibacterial activity against Pseudomonas aeruginosa 14-9 after 18 to 24 hrs by CLSI M100-S11 method
Klebsiella pneumoniae [18] = assay: Antibacterial activity against extended-spectrum beta-lactamase-producing Klebsiella pneumoniae 14-19 after 18 to 24 hrs by CLSI M100-S11 method
Escherichia coli [19] = assay: Antibacterial activity against Escherichia coli 14-2 after 18 to 24 hrs by CLSI M100-S11 method
Escherichia coli [20] = assay: Antibacterial activity against extended-spectrum beta-lactamase-producing Escherichia coli 14-1 after 18 to 24 hrs by CLSI M100-S11 method
Staphylococcus aureus [21] = assay: Antibacterial activity against Staphylococcus aureus CMCC 26003 after 18 to 24 hrs by CLSI M100-S11 method
Enterococcus faecalis [22] = assay: Antibacterial activity against Enterococcus faecalis 14-3 after 18 to 24 hrs by CLSI M100-S11 method
Escherichia coli [23] = assay: Antibacterial activity against extended-spectrum beta-lactamase-producing Escherichia coli 14-2 after 18 to 24 hrs by CLSI M100-S11 method
Pseudomonas aeruginosa [24] = assay: Antibacterial activity against Pseudomonas aeruginosa 14-15 after 18 to 24 hrs by CLSI M100-S11 method
Escherichia coli [25] = assay: Antibacterial activity against Escherichia coli 14-1 after 18 to 24 hrs by CLSI M100-S11 method
Enterococcus faecium [26] = assay: Antibacterial activity against Enterococcus faecium 14-2 after 18 to 24 hrs by CLSI M100-S11 method
Pseudomonas aeruginosa [27] = assay: Antibacterial activity against Pseudomonas aeruginosa ATCC 27853 after 18 to 24 hrs by CLSI M100-S11 method
Klebsiella pneumoniae [28] = assay: Antibacterial activity against Klebsiella pneumoniae 14-1 after 18 to 24 hrs by CLSI M100-S11 method
Enterococcus faecium [29] = assay: Antibacterial activity against Enterococcus faecium 14-1 after 18 to 24 hrs by CLSI M100-S11 method
[30] = tested on: Staphylococcus epidermidis; assay: Antibacterial activity against methicillin-sensitive Staphylococcus epidermidis 14-2 after 18 to 24 hrs by CLSI M100-S11 method
Enterococcus faecalis [31] = assay: Antibacterial activity against Enterococcus faecalis 14-1 after 18 to 24 hrs by CLSI M100-S11 method
Klebsiella pneumoniae [32] = assay: Antibacterial activity against extended-spectrum beta-lactamase-producing Klebsiella pneumoniae 14-18 after 18 to 24 hrs by CLSI M100-S11 method
[33] = tested on: Staphylococcus epidermidis; assay: Antibacterial activity against methicillin-sensitive Staphylococcus epidermidis 14-6 after 18 to 24 hrs by CLSI M100-S11 method
[34] = tested on: Staphylococcus epidermidis; assay: Antibacterial activity against methicillin-resistant Staphylococcus epidermidis 14-22 after 18 to 24 hrs by CLSI M100-S11 method
Klebsiella pneumoniae [35] = assay: Antibacterial activity against Klebsiella pneumoniae 14-3 after 18 to 24 hrs by CLSI M100-S11 method
[36] = tested on: Mycobacterium tuberculosis; assay: Antimycobacterial activity against Mycobacterium tuberculosis H37Rv ATCC 27294 after 3 days by microplate Alamar Blue assay; conditions: H37Rv ATCC 27294, 72 h

Structure (SMILES): CCO/N=C1\CN(c2nc3c(cc2F)c(=O)c(C(=O)O)cn3-c2nc(N)c(F)cc2F)CC1CN (stereo unspecified)
- MIC (Staphylococcus aureus [1]): 0.5 µg/mL (≈ 1.02 µM)
- MIC (Staphylococcus aureus [2]): 64 µg/mL (≈ 130 µM)
- MIC (Staphylococcus aureus [3]): 0.5 µg/mL (≈ 1.02 µM)
- MIC (Pseudomonas aeruginosa [4]): 16 µg/mL (≈ 32.6 µM)
- MIC (Pseudomonas aeruginosa [5]): 32 µg/mL (≈ 65.1 µM)
- MIC (Enterococcus faecalis [6]): 16 µg/mL (≈ 32.6 µM)
- MIC (Klebsiella pneumoniae [7]): 128 µg/mL (≈ 260 µM)
- MIC (Escherichia coli [8]): 0.5 µg/mL (≈ 1.02 µM)
- MIC (Streptococcus pneumoniae): 16 µg/mL (≈ 32.6 µM)
- MIC (Staphylococcus aureus [9]): 0.25 µg/mL (≈ 0.509 µM)
- MIC [10]: 32 µg/mL (≈ 65.1 µM)
- MIC (Staphylococcus aureus [11]): 64 µg/mL (≈ 130 µM)
- MIC (Klebsiella pneumoniae [12]): 64 µg/mL (≈ 130 µM)
- MIC [13]: 64 µg/mL (≈ 130 µM)
- MIC (Pseudomonas aeruginosa [14]): 16 µg/mL (≈ 32.6 µM)
- MIC [15]: 32 µg/mL (≈ 65.1 µM)
- MIC (Klebsiella pneumoniae [16]): 128 µg/mL (≈ 260 µM)
- MIC (Pseudomonas aeruginosa [17]): 16 µg/mL (≈ 32.6 µM)
- MIC (Klebsiella pneumoniae [18]): 128 µg/mL (≈ 260 µM)
- MIC (Escherichia coli [19]): 64 µg/mL (≈ 130 µM)
- MIC (Escherichia coli [20]): 8 µg/mL (≈ 16.3 µM)
- MIC (Staphylococcus aureus [21]): 0.06 µg/mL (≈ 0.122 µM)
- MIC (Enterococcus faecalis [22]): 32 µg/mL (≈ 65.1 µM)
- MIC (Escherichia coli [23]): 128 µg/mL (≈ 260 µM)
- MIC (Pseudomonas aeruginosa [24]): 16 µg/mL (≈ 32.6 µM)
- MIC (Escherichia coli [25]): 64 µg/mL (≈ 130 µM)
- MIC (Enterococcus faecium [26]): 8 µg/mL (≈ 16.3 µM)
- MIC (Pseudomonas aeruginosa [27]): 4 µg/mL (≈ 8.14 µM)
- MIC (Klebsiella pneumoniae [28]): 64 µg/mL (≈ 130 µM)
- MIC (Enterococcus faecium [29]): 128 µg/mL (≈ 260 µM)
- MIC [30]: 64 µg/mL (≈ 130 µM)
- MIC (Enterococcus faecalis [31]): 16 µg/mL (≈ 32.6 µM)
- MIC (Klebsiella pneumoniae [32]): 32 µg/mL (≈ 65.1 µM)
- MIC [33]: 32 µg/mL (≈ 65.1 µM)
- MIC [34]: 32 µg/mL (≈ 65.1 µM)
- MIC (Klebsiella pneumoniae [35]): 128 µg/mL (≈ 260 µM)
- MIC [36]: 6.56 µg/mL (≈ 13.3 µM)

Structure (SMILES): CO/N=C1\CN(c2nc3c(cc2F)c(=O)c(C(=O)O)cn3-c2nc(N)c(F)cc2F)[C@H]1CN
- MIC (Staphylococcus aureus [1]): 8 µg/mL (≈ 17.3 µM)
- MIC (Staphylococcus aureus [2]): > 128 µg/mL
- MIC (Staphylococcus aureus [3]): 4 µg/mL (≈ 8.63 µM)
- MIC (Pseudomonas aeruginosa [4]): 32 µg/mL (≈ 69.1 µM)
- MIC (Pseudomonas aeruginosa [5]): 32 µg/mL (≈ 69.1 µM)
- MIC (Enterococcus faecalis [6]): > 128 µg/mL
- MIC (Klebsiella pneumoniae [7]): > 128 µg/mL
- MIC (Escherichia coli [8]): 2 µg/mL (≈ 4.32 µM)
- MIC (Streptococcus pneumoniae): 64 µg/mL (≈ 138 µM)
- MIC (Staphylococcus aureus [9]): 8 µg/mL (≈ 17.3 µM)
- MIC [10]: 64 µg/mL (≈ 138 µM)
- MIC (Staphylococcus aureus [11]): > 128 µg/mL
- MIC (Klebsiella pneumoniae [12]): > 128 µg/mL
- MIC [13]: > 128 µg/mL
- MIC (Pseudomonas aeruginosa [14]): 64 µg/mL (≈ 138 µM)
- MIC [15]: > 128 µg/mL
- MIC (Klebsiella pneumoniae [16]): > 128 µg/mL
- MIC (Pseudomonas aeruginosa [17]): 32 µg/mL (≈ 69.1 µM)
- MIC (Klebsiella pneumoniae [18]): > 128 µg/mL
- MIC (Escherichia coli [19]): > 128 µg/mL
- MIC (Escherichia coli [20]): 64 µg/mL (≈ 138 µM)
- MIC (Staphylococcus aureus [21]): 4 µg/mL (≈ 8.63 µM)
- MIC (Enterococcus faecalis [22]): > 128 µg/mL
- MIC (Escherichia coli [23]): > 128 µg/mL
- MIC (Pseudomonas aeruginosa [24]): 64 µg/mL (≈ 138 µM)
- MIC (Escherichia coli [25]): > 128 µg/mL
- MIC (Enterococcus faecium [26]): 128 µg/mL (≈ 276 µM)
- MIC (Pseudomonas aeruginosa [27]): 16 µg/mL (≈ 34.5 µM)
- MIC (Klebsiella pneumoniae [28]): > 128 µg/mL
- MIC (Enterococcus faecium [29]): > 128 µg/mL
- MIC [30]: > 128 µg/mL
- MIC (Enterococcus faecalis [31]): > 128 µg/mL
- MIC (Klebsiella pneumoniae [32]): 64 µg/mL (≈ 138 µM)
- MIC [33]: 64 µg/mL (≈ 138 µM)
- MIC [34]: > 128 µg/mL
- MIC (Klebsiella pneumoniae [35]): > 128 µg/mL
- MIC [36]: > 32 µg/mL

Structure (SMILES): CCO/N=C1\CN(c2nc3c(cc2F)c(=O)c(C(=O)O)cn3-c2nc(N)c(F)cc2F)[C@@H]1CN
- MIC (Staphylococcus aureus [1]): 32 µg/mL (≈ 67 µM)
- MIC (Staphylococcus aureus [2]): > 128 µg/mL
- MIC (Staphylococcus aureus [3]): 32 µg/mL (≈ 67 µM)
- MIC (Pseudomonas aeruginosa [4]): 128 µg/mL (≈ 268 µM)
- MIC (Pseudomonas aeruginosa [5]): 128 µg/mL (≈ 268 µM)
- MIC (Enterococcus faecalis [6]): > 128 µg/mL
- MIC (Klebsiella pneumoniae [7]): > 128 µg/mL
- MIC (Escherichia coli [8]): 16 µg/mL (≈ 33.5 µM)
- MIC (Streptococcus pneumoniae): 64 µg/mL (≈ 134 µM)
- MIC (Staphylococcus aureus [9]): 32 µg/mL (≈ 67 µM)
- MIC [10]: > 128 µg/mL
- MIC (Staphylococcus aureus [11]): > 128 µg/mL
- MIC (Klebsiella pneumoniae [12]): > 128 µg/mL
- MIC [13]: > 128 µg/mL
- MIC (Pseudomonas aeruginosa [14]): 128 µg/mL (≈ 268 µM)
- MIC [15]: > 132 µg/mL
- MIC (Klebsiella pneumoniae [16]): > 128 µg/mL
- MIC (Pseudomonas aeruginosa [17]): 128 µg/mL (≈ 268 µM)
- MIC (Klebsiella pneumoniae [18]): > 128 µg/mL
- MIC (Escherichia coli [19]): > 128 µg/mL
- MIC (Escherichia coli [20]): > 128 µg/mL
- MIC (Staphylococcus aureus [21]): 16 µg/mL (≈ 33.5 µM)
- MIC (Enterococcus faecalis [22]): > 128 µg/mL
- MIC (Escherichia coli [23]): > 128 µg/mL
- MIC (Pseudomonas aeruginosa [24]): 128 µg/mL (≈ 268 µM)
- MIC (Escherichia coli [25]): > 128 µg/mL
- MIC (Enterococcus faecium [26]): 128 µg/mL (≈ 268 µM)
- MIC (Pseudomonas aeruginosa [27]): 128 µg/mL (≈ 268 µM)
- MIC (Klebsiella pneumoniae [28]): > 128 µg/mL
- MIC (Enterococcus faecium [29]): > 128 µg/mL
- MIC [30]: > 128 µg/mL
- MIC (Enterococcus faecalis [31]): > 128 µg/mL
- MIC (Klebsiella pneumoniae [32]): > 128 µg/mL
- MIC [33]: > 128 µg/mL
- MIC [34]: > 128 µg/mL
- MIC (Klebsiella pneumoniae [35]): > 128 µg/mL
- MIC [36]: > 32 µg/mL
